According to patent publication US8721858B2, “Non-focusing tracers for indirect detection in electrophoretic displacement techniques” (The Board of Trustees of the Leland Stanford Junior …, priority 2010, dated 2014):

Experiments:
[1] = limiting fully ionized mobility, value = mobility × 10^9; cited from earlier work
[2] = Estimated effective mobilities in ITP zones of FIGS. 4a-b; conditions: % of −17.8×10^−9 m^2V^−1s^−1
Description: We used numerical codes to predict the composition, pH, and fluorescence intensity of each zone for assay design and theory validation. Transient and steady state problems can be simulated with programs such as Simul 5, or a MATLAB-based program developed in-house. For fast solution of most problems, however, we used a steady-state solver written in-house based on the RFQ method described by Beckers and Everaerts. This code adjusts ion mobility and pKa for ionic strength based on the Davies equation and Robinson-Stokes model, respectively. See Table 1 above for the limiting electrophoretic mobilities and pKas of example chemicals used in simulations.
Further details relating to FIGS. 4a-b are as follows. FIGS. 4a-b show detection of HEPES and MOPS with a counterionic (FIG. 4a) and overspeeding coionic (FIG. 4b) fluorescent non-focusing tracer. Top panes are ratios of zone intensities IA/IL, and bottom panes are corresponding images. The zones are, from left to right, TE (tricine), HEPES, MOPS, and LE (MES). The concentration of the tracer increases in high mobility zones. The mobility of the coionic tracer Alexa Fluor 488 (AF488) is close to that of MES, so it is especially sensitive in this region. […]. […] For the left plots, the LE contains 50 μM R6G. For the right plots, the TE contains 5 μM AF488. […].
As discussed in Theory, the sensitivity of counterspeeders tends to be approximately uniform for all analyte mobilities. In contrast, underspeeders and overspeeders offer the potential advantage of extreme sensitivity to analytes with mobilities approximately equal to that of the tracer. In FIGS. 4a-b, we estimate the effective mobility of the LE (MES) to be −17.8×10^−9 m^2V^−1s^−1, and the effective mobilities of MOPS, HEPES, and tricine to be respectively 58%, 41%, and 30% of that value. For the counterspeeder of FIG. 4a, the ratios of analyte-to-LE zone intensities are similar to the effective mobility ratios for MOPS, HEPES, and tricine (I/IL values of 0.69, 0.51, and 0.34, respectively). […]

O=S(=O)(O)CCN1CCN(CCO)CC1 [HEPES, 2-[4-(2-hydroxyethyl)piperazin-1-yl]ethanesulfonic acid]
fully-ionized Mobility · 10^9 [1]: (−1, 21.8) m^2V^−1s^−1
effective mobility relative to that of the LE (MES) [2]: 41%

O=C(O)CNC(CO)(CO)CO [Tricine, N-(2-Hydroxy-1,1-bis(hydroxymethyl)ethyl)glycine]
fully-ionized Mobility · 10^9 [1]: (−1, 26.6) m^2V^−1s^−1
effective mobility relative to that of the LE (MES) [2]: 30%

NC(CO)(CO)CO [Tris, 2-Amino-2-hydroxymethyl-propane-1,3-diol]
fully-ionized Mobility · 10^9 [1]: (−1, 29.5) m^2V^−1s^−1

Cl [Chloride]
fully-ionized Mobility · 10^9 [1]: (−1, 79.1) m^2V^−1s^−1

[Ba+2].[OH-].[OH-] [Ba(OH)2]
fully-ionized Mobility · 10^9 [1]: (+2 ,66) m^2V^−1s^−1

O=S(=O)(O)CCCN1CCOCC1 [MOPS, 3-morpholinopropane-1-sulfonic acid]
effective mobility relative to that of the LE (MES) [2]: 58%

CC(=O)O [Acetic acid]
fully-ionized Mobility · 10^9 [1]: (−1, 42.4) m^2V^−1s^−1
